PubChem BioAssay (NCI)
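All cell lines were grown in 96-well plates and treated with compound for 48 hours. Abbreviation: GI50, concentration required for 50% inhibition of growth. TGI denotes the concentration required for complete inhibition of growth.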

Columns and labels:
Test in all cases: growth of human tumour cells (NCI), 48 h
786-0 renal = system: 786-0 renal
A498 renal = system: A498 renal
A549 NSCLC = system: A549 NSCLC
ACHN renal = system: ACHN renal
BT-549 breast = system: BT-549 breast
CAKI-1 renal = system: CAKI-1 renal
COLO 205 colon = system: COLO 205 colon
DU-145 prostate = system: DU-145 prostate
EKVX NSCLC = system: EKVX NSCLC
HCC-2998 colon = system: HCC-2998 colon
HCT-116 colon = system: HCT-116 colon
HCT-15 colon = system: HCT-15 colon
HOP-62 NSCLC = system: HOP-62 NSCLC
HOP-92 NSCLC = system: HOP-92 NSCLC
HT29 colon = system: HT29 colon
K-562 leukemia = system: K-562 leukemia
KM12 colon = system: KM12 colon
M14 melanoma = system: M14 melanoma
MALME-3M melanoma = system: MALME-3M melanoma
MCF7 breast = system: MCF7 breast
MDA-MB-231 breast = system: MDA-MB-231 breast
MDA-MB-435 = system: MDA-MB-435
MDA-N = system: MDA-N
MOLT-4 leukemia = system: MOLT-4 leukemia
NCI-H226 lung = system: NCI-H226 lung
NCI-H23 lung = system: NCI-H23 lung
NCI-H460 lung = system: NCI-H460 lung
NCI-H522 lung = system: NCI-H522 lung
NCI/ADR-RES ovarian = system: NCI/ADR-RES ovarian
OVCAR-3 ovarian = system: OVCAR-3 ovarian
OVCAR-4 ovarian = system: OVCAR-4 ovarian
OVCAR-5 ovarian = system: OVCAR-5 ovarian
PC-3 prostate = system: PC-3 prostate
RPMI-8226 leukemia = system: RPMI-8226 leukemia
SF-268 CNS = system: SF-268 CNS
SF-295 CNS = system: SF-295 CNS
SK-MEL-2 melanoma = system: SK-MEL-2 melanoma
SK-MEL-28 melanoma = system: SK-MEL-28 melanoma
SK-MEL-5 melanoma = system: SK-MEL-5 melanoma
SK-OV-3 ovarian = system: SK-OV-3 ovarian
SN12C renal = system: SN12C renal
SNB-19 CNS = system: SNB-19 CNS
SNB-75 CNS = system: SNB-75 CNS
T-47D breast = system: T-47D breast
TK-10 renal = system: TK-10 renal
U251 CNS = system: U251 CNS
UACC-257 melanoma = system: UACC-257 melanoma
UACC-62 melanoma = system: UACC-62 melanoma
UO-31 renal = system: UO-31 renal
CCRF-CEM leukemia = system: CCRF-CEM leukemia
HL-60(TB) leukemia = system: HL-60(TB) leukemia
HS 578T breast = system: HS 578T breast
IGROV1 ovarian = system: IGROV1 ovarian
LOX IMVI melanoma = system: LOX IMVI melanoma
OVCAR-8 ovarian = system: OVCAR-8 ovarian
RXF 393 renal = system: RXF 393 renal
SF-539 CNS = system: SF-539 CNS
SR leukemia = system: SR leukemia
SW-620 colon = system: SW-620 colon

With COc1cccc(-n2c(N)c(-c3nc4cc(C(F)(F)F)ccc4s3)c3ccc([N+](=O)[O-])cc3c2=O)c1 the TGI (786-0 renal) was over 100 µM, the TGI (A498 renal) was over 100 µM and the TGI (A549 NSCLC) was over 100 µM. It also gave a TGI (ACHN renal) of over 100 µM, a TGI (BT-549 breast) of over 100 µM and a TGI (CAKI-1 renal) of over 100 µM. The TGI (COLO 205 colon) was over 100 µM, the TGI (DU-145 prostate) was over 100 µM and the TGI (EKVX NSCLC) was over 100 µM. The TGI (HCC-2998 colon) was over 100 µM, the TGI (HCT-116 colon) was over 100 µM and the TGI (HCT-15 colon) was over 100 µM. The TGI (HOP-62 NSCLC) was over 100 µM, the TGI (HOP-92 NSCLC) was over 100 µM and the TGI (HT29 colon) was over 100 µM. For the same compound, the TGI (K-562 leukemia) was over 100 µM, the TGI (KM12 colon) was over 100 µM and the TGI (M14 melanoma) was over 100 µM. It also gave a TGI (MALME-3M melanoma) of over 100 µM, a TGI (MCF7 breast) of over 100 µM and a TGI (MDA-MB-231 breast) of over 100 µM. The TGI (MDA-MB-435) was over 100 µM, the TGI (MDA-N) was over 100 µM and the TGI (MOLT-4 leukemia) was over 100 µM. For the same compound, the TGI (NCI-H226 lung) was over 100 µM, the TGI (NCI-H23 lung) was over 100 µM and the TGI (NCI-H460 lung) was over 100 µM. It also gave a TGI (NCI-H522 lung) of over 100 µM, a TGI (NCI/ADR-RES ovarian) of over 100 µM and a TGI (OVCAR-3 ovarian) of over 100 µM. It also gave a TGI (OVCAR-4 ovarian) of over 100 µM, a TGI (OVCAR-5 ovarian) of over 100 µM and a TGI (PC-3 prostate) of over 100 µM. The TGI (RPMI-8226 leukemia) was over 100 µM, the TGI (SF-268 CNS) was over 100 µM and the TGI (SF-295 CNS) was over 100 µM. The TGI (SK-MEL-2 melanoma) was over 100 µM, the TGI (SK-MEL-28 melanoma) was over 100 µM and the TGI (SK-MEL-5 melanoma) was over 100 µM. It also gave a TGI (SK-OV-3 ovarian) of over 100 µM, a TGI (SN12C renal) of over 100 µM and a TGI (SNB-19 CNS) of over 100 µM. The TGI (SNB-75 CNS) was over 100 µM, the TGI (T-47D breast) was over 100 µM and the TGI (TK-10 renal) was over 100 µM. The TGI (U251 CNS) was over 100 µM, the TGI (UACC-257 melanoma) was over 100 µM and the TGI (UACC-62 melanoma) was over 100 µM. The TGI (UO-31 renal) was over 100 µM.

Compound Nc1nc2c(c3cnccc13)C(c1cccc(Cl)c1)Cc1cnccc1-2 (stereo not given) has a GI50 (786-0 renal) of 0.396 µM, a TGI (786-0 renal) of 10.6 µM and a GI50 (A498 renal) of 0.275 µM. For the same compound, the TGI (A498 renal) was 0.852 µM, the GI50 (A549 NSCLC) was 0.552 µM and the TGI (A549 NSCLC) was 10.6 µM. It also gave a GI50 (ACHN renal) of 0.761 µM, a TGI (ACHN renal) of 11.9 µM and a GI50 (BT-549 breast) of 0.482 µM. The TGI (BT-549 breast) was 4.21 µM, the GI50 (CAKI-1 renal) was 0.434 µM and the TGI (CAKI-1 renal) was 15.5 µM. For the same compound, the GI50 (CCRF-CEM leukemia) was 0.429 µM, the TGI (CCRF-CEM leukemia) was 19.5 µM and the GI50 (COLO 205 colon) was 0.296 µM. For the same compound, the TGI (COLO 205 colon) was 0.872 µM, the GI50 (DU-145 prostate) was 0.309 µM and the TGI (DU-145 prostate) was 4.65 µM. The GI50 (EKVX NSCLC) was 0.441 µM, the TGI (EKVX NSCLC) was 15.1 µM and the GI50 (HCC-2998 colon) was 1.29 µM. For the same compound, the TGI (HCC-2998 colon) was 12.8 µM, the GI50 (HCT-116 colon) was 0.448 µM and the TGI (HCT-116 colon) was 11.3 µM. It also gave a GI50 (HCT-15 colon) of 0.388 µM, a TGI (HCT-15 colon) of 7.93 µM and a GI50 (HL-60(TB) leukemia) of 0.278 µM. The TGI (HL-60(TB) leukemia) was 5.27 µM, the GI50 (HOP-62 NSCLC) was 0.441 µM and the TGI (HOP-62 NSCLC) was 16.3 µM. The GI50 (HOP-92 NSCLC) was 0.811 µM, the TGI (HOP-92 NSCLC) was 18.2 µM and the GI50 (HS 578T breast) was 0.466 µM. It also gave a TGI (HS 578T breast) of 32.9 µM, a GI50 (HT29 colon) of 0.336 µM and a TGI (HT29 colon) of 2.56 µM. The GI50 (IGROV1 ovarian) was 0.644 µM, the TGI (IGROV1 ovarian) was 15.3 µM and the GI50 (K-562 leukemia) was 0.338 µM. The TGI (K-562 leukemia) was 28.7 µM, the GI50 (KM12 colon) was 0.409 µM and the TGI (KM12 colon) was 12.2 µM. For the same compound, the GI50 (LOX IMVI melanoma) was 0.373 µM, the TGI (LOX IMVI melanoma) was 11.2 µM and the GI50 (M14 melanoma) was 0.297 µM. For the same compound, the TGI (M14 melanoma) was 11 µM, the GI50 (MALME-3M melanoma) was 0.419 µM and the TGI (MALME-3M melanoma) was 17.8 µM. It also gave a GI50 (MCF7 breast) of 0.292 µM, a TGI (MCF7 breast) of 11.6 µM and a GI50 (MDA-MB-231 breast) of 0.763 µM. For the same compound, the TGI (MDA-MB-231 breast) was 11 µM, the GI50 (MDA-MB-435) was 0.21 µM and the TGI (MDA-MB-435) was 1.46 µM. It also gave a GI50 (MOLT-4 leukemia) of 0.494 µM, a TGI (MOLT-4 leukemia) of 17.3 µM and a GI50 (NCI-H226 lung) of 0.673 µM. The TGI (NCI-H226 lung) was 14.7 µM, the GI50 (NCI-H23 lung) was 0.382 µM and the TGI (NCI-H23 lung) was 3.51 µM. It also gave a GI50 (NCI-H460 lung) of 0.385 µM, a TGI (NCI-H460 lung) of 11.6 µM and a GI50 (NCI-H522 lung) of 0.247 µM. For the same compound, the TGI (NCI-H522 lung) was 0.718 µM, the GI50 (NCI/ADR-RES ovarian) was 0.237 µM and the TGI (NCI/ADR-RES ovarian) was 0.663 µM. It also gave a GI50 (OVCAR-3 ovarian) of 0.293 µM, a TGI (OVCAR-3 ovarian) of 13.1 µM and a GI50 (OVCAR-4 ovarian) of 2.23 µM. For the same compound, the TGI (OVCAR-4 ovarian) was 41 µM, the GI50 (OVCAR-5 ovarian) was 0.706 µM and the TGI (OVCAR-5 ovarian) was 18.6 µM. For the same compound, the GI50 (OVCAR-8 ovarian) was 0.601 µM, the TGI (OVCAR-8 ovarian) was 22.5 µM and the GI50 (PC-3 prostate) was 0.439 µM. It also gave a TGI (PC-3 prostate) of 1.66 µM, a GI50 (RPMI-8226 leukemia) of 0.48 µM and a TGI (RPMI-8226 leukemia) of 20.2 µM. The GI50 (RXF 393 renal) was 0.268 µM, the TGI (RXF 393 renal) was 0.765 µM and the GI50 (SF-268 CNS) was 0.741 µM. It also gave a TGI (SF-268 CNS) of 16.5 µM, a GI50 (SF-295 CNS) of 0.273 µM and a TGI (SF-295 CNS) of 0.914 µM. The GI50 (SF-539 CNS) was 0.255 µM, the TGI (SF-539 CNS) was 0.752 µM and the GI50 (SK-MEL-2 melanoma) was 0.374 µM. The TGI (SK-MEL-2 melanoma) was 5.25 µM, the GI50 (SK-MEL-28 melanoma) was 2.6 µM and the TGI (SK-MEL-28 melanoma) was 20.6 µM. The GI50 (SK-MEL-5 melanoma) was 0.398 µM, the TGI (SK-MEL-5 melanoma) was 2.04 µM and the GI50 (SK-OV-3 ovarian) was 0.51 µM. It also gave a TGI (SK-OV-3 ovarian) of 15 µM, a GI50 (SN12C renal) of 0.668 µM and a TGI (SN12C renal) of 14.4 µM. For the same compound, the GI50 (SNB-19 CNS) was 0.453 µM, the TGI (SNB-19 CNS) was 12.4 µM and the GI50 (SNB-75 CNS) was 0.38 µM. The TGI (SNB-75 CNS) was 17.8 µM, the GI50 (SR leukemia) was 0.293 µM and the TGI (SR leukemia) was over 100 µM. The GI50 (SW-620 colon) was 0.455 µM, the TGI (SW-620 colon) was 17.6 µM and the GI50 (T-47D breast) was 0.384 µM. The TGI (T-47D breast) was 25.2 µM, the GI50 (TK-10 renal) was 0.696 µM and the TGI (TK-10 renal) was 13.7 µM. For the same compound, the GI50 (U251 CNS) was 0.336 µM, the TGI (U251 CNS) was 1.08 µM and the GI50 (UACC-257 melanoma) was 4.36 µM. It also gave a TGI (UACC-257 melanoma) of 22.5 µM, a GI50 (UACC-62 melanoma) of 0.371 µM and a TGI (UACC-62 melanoma) of 12 µM. It also gave a GI50 (UO-31 renal) of 0.841 µM and a TGI (UO-31 renal) of 14.8 µM.
